Assay results: BindingDB's records for doi:10.3109/14756366.2011.596836 (Artvin Coruh University, 2012)
pKi: −log10 of the molar value.

What was measured:
Assay in all cases: CA Activity Assay
Settings in all cases: pH 7.4
[1] = target: Carbonic anhydrase 6 (Homo sapiens, UniProt P23280)
Description: (§1) The enzymatic reaction, in a total volume of 3.0 mL, contained 1.4-mL 0.05-M Tris SO4 buffer (pH 7.4), 1-mL 3-mM 4-NPA, 0.5-mL H2O and 0.1-mL enzyme solution. A reference measurement was obtained by preparing the same cuvette without enzyme solution. The inhibitory effects of the phenolic compounds were examined. All compounds were tested in triplicate at each concentration used. Different concentrations of the compounds were used.

[2] = target: Carbonic anhydrase 2 (Homo sapiens, UniProt P00918)
Description: as §1

[3] = target: Carbonic anhydrase 1 (Homo sapiens, UniProt P00915)
Chain of Carbonic anhydrase 1 (P00915 whole entry): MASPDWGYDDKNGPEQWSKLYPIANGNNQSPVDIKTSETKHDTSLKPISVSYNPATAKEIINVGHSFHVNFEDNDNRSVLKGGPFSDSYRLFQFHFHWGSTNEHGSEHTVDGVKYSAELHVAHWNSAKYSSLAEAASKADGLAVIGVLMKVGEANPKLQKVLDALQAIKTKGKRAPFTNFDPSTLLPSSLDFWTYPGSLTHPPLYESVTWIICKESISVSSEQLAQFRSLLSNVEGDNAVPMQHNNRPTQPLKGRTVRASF
Description: as §1

Chain of Carbonic anhydrase 6 (P23280 whole entry): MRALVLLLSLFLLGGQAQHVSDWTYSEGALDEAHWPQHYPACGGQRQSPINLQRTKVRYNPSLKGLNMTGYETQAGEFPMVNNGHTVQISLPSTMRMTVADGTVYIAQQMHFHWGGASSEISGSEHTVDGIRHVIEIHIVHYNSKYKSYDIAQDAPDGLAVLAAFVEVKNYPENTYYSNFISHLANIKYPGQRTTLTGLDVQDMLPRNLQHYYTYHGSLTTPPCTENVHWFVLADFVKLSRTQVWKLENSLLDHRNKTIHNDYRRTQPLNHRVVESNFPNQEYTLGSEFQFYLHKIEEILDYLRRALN

Row | SMILES | pKi [1] | pKi [2] | pKi [3]
1 | O=C(c1ccc(O)c(O)c1)c1ccc(O)c(O)c1 [Bis(3,4-dihydroxyphenyl)methanone] | 4.94 | 5.84 | 4.74
2 | COc1ccc(C(=O)c2ccc(OC)c(OC)c2)cc1OC [hCA inhibitor, 2] | 3.53 | 4.32 | 3.39
